This test concerns the target T1, Glutamate racemase (Limosilactobacillus fermentum, UniProt Q03469).
T1 sequence (Q03469 whole entry): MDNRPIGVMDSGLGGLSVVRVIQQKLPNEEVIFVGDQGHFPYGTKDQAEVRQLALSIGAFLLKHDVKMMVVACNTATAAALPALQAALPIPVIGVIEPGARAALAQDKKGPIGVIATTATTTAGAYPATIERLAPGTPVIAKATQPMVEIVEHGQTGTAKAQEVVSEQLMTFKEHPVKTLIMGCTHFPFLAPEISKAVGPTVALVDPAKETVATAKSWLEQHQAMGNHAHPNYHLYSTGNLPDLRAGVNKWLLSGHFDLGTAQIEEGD
The test can be described thus: Binding affinity against Glutamate Racemase.

In general, Ki refers to a measure of affinity in units of concentration, obtained from inhibition or displacement.

Compound `N[C@H](C[C@H](Cc1ccc2ccccc2c1)C(=O)O)C(=O)O` [2-Amino-4-naphthalen-2-ylmethyl-pentanedioic acid] showed a Ki of 16 nM.

The record behind these values is BindingDB's records for doi:10.1021/jm020901d (Eli Lilly, 2002).
